Experimental data published in patent publication US20080242724A1, “Ibopamine Maleate, Method for Preparing it and Pharmaceutical Compositions Containing It” (AZIENDE CHIM. RIUN. ANG. FRANC. A.C.R.A.F. S.P.A., priority 2004, published 2008).
Counter-ions that a name gives are not always drawn.

System: male rabbits (New Zealand White)
Experiment: Ocular tolerability (Draize) after repeated instillation
Type: in vivo, rabbit
Conditions: for Conjunctiva Lachrymation / Conjunctiva Reddening / Conjunctiva Swelling / Cornea Area of the cornea affected by opacity / Cornea Opacity / Iris: Draize score; for Conjunctiva Lachrymation / Conjunctiva Reddening / Conjunctiva Swelling / Cornea Area of the cornea affected by opacity / Cornea Opacity / Iris / Total Score: rabbit eye, 0.1 ml aqueous solution (corresponding to 1.79% by weight of ibopamine, pH 7.0) three times a day for fifteen days; for local tolerability: compared with the hydrochloride, statement in words; for Total Score: sum of Draize scores
Protocol: Two aqueous solutions were used.
The first contained 2% by weight of ibopamine hydrochloride (corresponding to 1.79% by weight of ibopamine) buffered to pH 7.0.
The second contained 2.46% by weight of ibopamine maleate (corresponding to 1.79% by weight of ibopamine) buffered to pH 7.0.
12 male rabbits (New Zealand White) with an average weight of 2 kg and an average age of ten months were used, divided into two groups of six rabbits each. The first group was treated with 0.1 ml of the first test solution three times a day for fifteen days. The second group was treated with 0.1 ml of the second test solution three times a day for fifteen days.
The tolerability was evaluated according to J. Draize et al., Pharmacol. Exp. Ther., 83, 377-390 (1944).

| Compound | Conjunctiva Lachrymation | Conjunctiva Reddening | Conjunctiva Swelling | Cornea Area of the cornea affected by opacity | Cornea Opacity | Iris | local tolerability (listed as ibopamine maleate) | local tolerability (listed as maleate) | Total Score |
| --- | --- | --- | --- | --- | --- | --- | --- | --- | --- |
| ibopamine maleate (1:1) | 1 | 1 | 0 | 1 | 0 | 0 | better local tolerability | better local tolerability than the hydrochloride | 3 |
| CNCCc1ccc(OC(=O)C(C)C)c(OC(=O)C(C)C)c1 [Ibopamine hydrochloride, ibopamine hydrochloride, reference compound] | 2 | 1 | 1 | 2 | 1 | 1 | – | – | 8 |
